In ChEMBL document CHEMBL1201862, “PubChem BioAssay data set” (2004):
Activity calls are given as the source filed them.

Experiments:
Bcl-2-related protein A1 [1] = target: T1, Bcl-2-related protein A1 (Mus musculus, UniProt Q07440); assay: Bfl-1 binding inhibitors, SAR follow-up, biochemical, fluorescence polarization (AID 1070)
T1 sequence (Q07440 whole entry): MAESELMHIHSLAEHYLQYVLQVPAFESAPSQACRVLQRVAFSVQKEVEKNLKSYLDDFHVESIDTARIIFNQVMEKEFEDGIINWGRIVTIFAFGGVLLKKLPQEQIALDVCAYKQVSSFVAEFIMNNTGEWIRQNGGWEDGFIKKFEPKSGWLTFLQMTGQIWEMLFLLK

[2] = target: Glyceraldehyde-3-phosphate dehydrogenase (Homo sapiens, UniProt P04406)
Glyceraldehyde-3-phosphate dehydrogenase, sequence (P04406 whole entry): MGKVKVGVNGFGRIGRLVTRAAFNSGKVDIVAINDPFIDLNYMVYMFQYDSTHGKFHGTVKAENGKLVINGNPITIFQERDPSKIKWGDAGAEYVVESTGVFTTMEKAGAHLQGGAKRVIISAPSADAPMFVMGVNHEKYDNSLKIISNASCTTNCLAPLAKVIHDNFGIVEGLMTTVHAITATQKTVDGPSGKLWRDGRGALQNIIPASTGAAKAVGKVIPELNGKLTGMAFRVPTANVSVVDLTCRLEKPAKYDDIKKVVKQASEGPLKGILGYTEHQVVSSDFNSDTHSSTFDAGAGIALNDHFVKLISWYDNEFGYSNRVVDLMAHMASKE

Bcl-2-related protein A1 [3] = target: T1, Bcl-2-related protein A1; assay: Bfl-1 inhibitors blocking BH3 peptide binding, confirmation, biochemical, TR-FRET, mouse Bfl-1 (AID 621);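 note: TR-FRET binding of GST-Bfl-1 to FITC-labelled Bid peptide via terbium antibody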
[4] = target: T2, Ubiquitin-conjugating enzyme E2 N (Homo sapiens, UniProt P61088); assay type: functional
T2 sequence (P61088 whole entry): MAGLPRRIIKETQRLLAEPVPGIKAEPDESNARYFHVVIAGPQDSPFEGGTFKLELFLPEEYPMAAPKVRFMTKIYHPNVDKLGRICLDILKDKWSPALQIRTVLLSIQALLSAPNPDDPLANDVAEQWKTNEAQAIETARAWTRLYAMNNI

Bcl-2-related protein A1 [5] = target: T1, Bcl-2-related protein A1; assay type: functional
[6] = target: T2, Ubiquitin-conjugating enzyme E2 N; assay type: functional; remark: listed apart in the source
[7] = Vero cell cytotoxicity, dose response, cytotoxicity control for Vif-APOBEC3G degradation inhibitor project, Vero cells (AID 1117358); assay type: functional; details: Human immunodeficiency virus 1, Vero
Protein Tat = target: T3, Protein Tat (Human immunodeficiency virus type 1 group M subtype B (isolate HXB2)(HIV-1), UniProt P04608); assay type: functional;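 note: tat binding to TAR RNA read out by fluorescence polarization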
T3 sequence (P04608 whole entry): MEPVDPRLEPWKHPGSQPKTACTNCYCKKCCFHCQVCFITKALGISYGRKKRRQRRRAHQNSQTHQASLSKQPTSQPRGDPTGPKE

[8] = inhibitors of Bluetongue virus cytopathic effect, confirmation, arbovirus, BSR cells (AID 1250); assay type: functional;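 note: protection from viral cytopathic effect measured as cell viability by ATP luminescence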
[9] = Luminescence Cell-Based Dose Response to Identify Activators of Luciferase Translation or Activity in H4-C Neuroglioblastoma Cells. [Related pubchem assays: 1829 (Project Summary), 1814 (Primary HTS)]; assay type: functional
H4 = assay: Luminescence Cell-Based Dose Response HTS to Identify Activators of 5'UTR Stem-Loop Driven Prion Protein mRNA Translation in H4 Neuroglioblastoma Cells. [Related pubchem assays: 1829 (Project Summary), 1814 (Primary HTS)]; assay type: functional; details: Homo sapiens
[10] = Luminescence Cell-Based Dose Confirmation to Identify Activators of 5'UTR Stem-Loop Driven Alpha-Synuclein mRNA Translation in H4 Neuroglioblastoma Cells. [Related pubchem assays: 1829 (Project Summary), 1814 (Primary HTS)]; assay type: functional
[11] = Luminescence Cell-Based Dose Response to Identify Activators of 5'UTR Stem-Loop Driven Prion Protein mRNA Translation in H4-C Neuroglioblastoma Cells. [Related pubchem assays: 1829 (Project Summary), 1814 (Primary HTS)]; assay type: functional
[12] = Luminescence Cell-Based Dose Response HTS to Identify Activators of Luciferase Translation or Activity in H4 […] Cells. [Related pubchem assays: 1829 (Project Summary), 1814 (Primary HTS)]; assay type: functional
[13] = Luminescence Cell-Based Dose Confirmation HTS to Identify Activators of 5'UTR Stem-Loop Driven Alpha-Synuclein mRNA Translation in H4 Neuroglioblastoma Cells. [Related pubchem assays: 1829 (Project Summary), 1814 (Primary HTS)]; assay type: functional

## Cc1ccc(Cl)c(N2C(=O)C(Cl)=C(N3CCN(C)CC3)C2=O)c1Cl
Bcl-2-related protein A1 [1]
  IC50: 23.9 µM (active)
[2]
  IC50: > 100 µM (not active)
Bcl-2-related protein A1 [3]
  IC50: 11.1 µM (active)

## O=C1c2cccc3cccc(c23)N1Cc1cccc(F)c1
[4]
  IC50: 6.16 µM (active)
Bcl-2-related protein A1 [5]
  IC50: > 20 µM (inactive)
[6]
  IC50: 16.6 µM (active)

## O=C(NCc1ccccc1)/C(=C/c1ccc(OC(F)F)cc1)c1ccccc1
[7]
  CC50: 34.5 µM (active)

## CCC(NC(=O)Nc1ccc(O)cc1)(C(F)(F)F)C(F)(F)F
Protein Tat
  IC50: 40.2 µM (inconclusive)

## O=C(Nc1ccccc1C(=O)O)c1ccc(NC(=O)c2ccc(Br)o2)cc1
[8]
  IC50: 35.4 µM (active)

## COc1cccc(N2C(=O)C(Cl)=C(N3CCN(CCOCCO)CC3)C2=O)c1
Bcl-2-related protein A1 [1]
  IC50: 8.85 µM (active)
[2]
  IC50: > 100 µM (not active)
Bcl-2-related protein A1 [3]
  IC50: 9.11 µM (active)

## CS(=O)(=O)N(CC(O)Cn1c2ccccc2c2ccccc21)c1ccccc1 (configuration not stated)
[8]
  IC50: 33 µM (active)

## Cc1cccc(C)c1NC(=O)Cn1c(=O)n(CCCC(=O)NC2CCN(Cc3ccccc3)CC2)c(=O)c2ccccc21
[4]
  IC50: 4.06 µM (active)
Bcl-2-related protein A1 [5]
  IC50: > 20 µM (inactive)
[6]
  IC50: 6.42 µM (active)

## Cc1ccc(Nc2[nH]cnc3ncnc2-3)cc1Cl
[9]
  EC50: > 12 µM (not active)
H4
  EC50: > 120 µM (not active)
[10]
  EC50: 0.604 µM (active)
[11]
  EC50: 0.745 µM (active)
[12]
  EC50: 0.268 µM (inconclusive)
[13]
  EC50: < 0.1 µM (active)
